Bridges are numbered along the chain shown (N, C = ends). Roman numbers before positions name the chains, in order. Where no end group is shown, it is not given here.
Test system: normal stroma cells
Test: Cell density, patient-derived stromal cells with autologous PBMC and C24D
Assay type: cell-based, human
Conditions: autologous PBMCs + C24D; FIGS. 5A-B
Text: Patient-derived tumor primary culture medium: Medium D: DMEM/F12 (1:1, v/v) supplemented with 10% FBS and 1% antibiotics/antimycotic (100×. Medium M: Medium 171 supplemented with 1% MEGS (100×), and 1% antibiotics/antimycotics. Medium DB: mixed from medium D and medium M (1:1, v/v).
Tumor biopsies, all from different patients, were collected after obtaining the patients' consent and were transported to the laboratory. Excess adipose tissue was pared off the tumor samples, following which the samples were sliced into small fragments (approximately 1-2 mm^2) by using a scalpel. The fragments were seeded per 10 cm^2 Petri dishes in DB medium. The Petri dishes were incubated at 37° C. with 5% CO2 and monitored daily to record the time of cell appearance and the cell morphology. The medium was replaced every 3 days. Approximately two weeks after primary culture incubation, cells were trypsinized and cultured in Petri dishes according to the below protocol.
Day 1: 4×10^5 tumor cells from the cell line or tumor and stroma cells derived from patient's biopsies were incubated in the respective growth medium in 6 well plates overnight or Petri dishes. Day 2: 3 hours prior to addition of PBMC of healthy female donors or from autologous patients, DMEM medium was changed to RPMI medium. […]

effect on normal stroma cells of the same patient: no effect
Substance: I: CGHHLLRPRRRKRPHSIPTPILIFRSP / II: CGHHLLRPRRRKRPHSIPTPILIFRSP (disulfide I:1-II:1) [C24D]

Reference: patent US20220120732A1, “TREATMENT OF DISEASES WITH MULTIMERIC PEPTIDES” (Ramot at Tel-Aviv University Ltd., priority 2019, published 2022)
